28 compounds from patent US8822449B2, “Substituted aminoindanes and analogs thereof, and the pharmaceutical use thereof” (Sanofi, priority 2008, dated 2014) can be followed below.

Read-outs that look alike come from different tables or passages of the source.

The assay concerns the target T1, sodium-proton exchanger of subtype 3 (NHE3) (Homo sapiens, UniProt P48764).
T1 construct: expressed in transfected cells
T1 sequence (P48764 26-834): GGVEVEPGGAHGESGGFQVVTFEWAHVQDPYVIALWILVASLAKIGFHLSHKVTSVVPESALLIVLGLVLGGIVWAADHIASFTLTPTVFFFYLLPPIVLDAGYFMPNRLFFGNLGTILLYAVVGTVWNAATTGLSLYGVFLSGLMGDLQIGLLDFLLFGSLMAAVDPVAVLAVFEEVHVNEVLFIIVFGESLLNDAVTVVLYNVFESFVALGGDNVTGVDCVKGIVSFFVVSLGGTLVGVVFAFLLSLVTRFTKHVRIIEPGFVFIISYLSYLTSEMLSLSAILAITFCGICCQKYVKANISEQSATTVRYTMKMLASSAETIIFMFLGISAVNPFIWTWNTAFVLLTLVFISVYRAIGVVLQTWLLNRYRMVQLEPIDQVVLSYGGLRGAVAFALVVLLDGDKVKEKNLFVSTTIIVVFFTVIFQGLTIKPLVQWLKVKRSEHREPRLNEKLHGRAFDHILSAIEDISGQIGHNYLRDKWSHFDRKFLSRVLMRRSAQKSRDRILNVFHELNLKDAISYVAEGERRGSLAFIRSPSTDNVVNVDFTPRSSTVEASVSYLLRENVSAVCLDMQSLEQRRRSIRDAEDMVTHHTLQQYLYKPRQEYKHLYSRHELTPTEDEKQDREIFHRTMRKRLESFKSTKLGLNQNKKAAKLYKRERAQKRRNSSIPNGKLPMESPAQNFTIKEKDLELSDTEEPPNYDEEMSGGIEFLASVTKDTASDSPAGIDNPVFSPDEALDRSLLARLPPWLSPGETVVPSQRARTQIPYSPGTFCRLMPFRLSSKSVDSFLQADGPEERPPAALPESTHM
Description: Recovery of intracellular pH (pHi) after acidification in LAP1 cells stably expressing NHE3 (BCECF fluorescence, FLIPR). The format is cell-based. The following applies: LAP1 cells stably expressing NHE3, pH recovery after acidification, range 1 is % inhibition at 10 μM.

The mark [1] stands for this setting: read-out: Activity range (inhibitory effect on NHE3).

With `CN(C1CCNCC1)[C@@H]1Cc2ccccc2[C@H]1Oc1cccc(N2CCNCC2)c1` (racemic) [Example 629, methyl-[rac-trans-(1,2)-1-(3-piperazin-1-ylphenoxy)indan-2-yl]piperidin-4-ylamine], the IC50 under setting [1] lay in the range of 1000 to 10000 nM.

For the compound `N[C@@H]1CCCN([C@H]2CCc3ccccc3[C@@H]2Oc2ccccc2OC(F)(F)F)C1` (racemic) [Example 50, (R)-1-[rac-trans-(1,2)-1-(2-trifluoromethoxyphenoxy)-1,2,3,4-tetrahydronaphthalen-2-yl]piperidin-3-ylamine], under setting [1], the inhibition at 10 µM was in the range of 20 to 50%.

As for `Cc1nnc(C)n1-c1ccc(O[C@H]2c3cc(Cl)cc(Cl)c3C[C@@H]2N2CCOCC2)c(F)c1` [Example 564, 4-{trans-(1S,2S)-4,6-dichloro-1-[4-(3,5-dimethyl-[1,2,4]triazol-4-yl)-2-fluorophenoxy]indan-2-yl}morpholine], the IC50 under setting [1] was less than 1000 nM.

Consider `Cc1cc(C#N)cc(C)c1O[C@H]1c2ccccc2CC[C@@H]1N1CCC[C@@H](N)C1` (racemic) [Example 511, 4-[rac-trans-(1,2)-2-((R)-3-aminopiperidin-1-yl)-1,2,3,4-tetrahydronaphthalen-1-yloxy]-3,5-dimethylbenzonitrile], for which, under setting [1], the inhibition at 10 µM lay within 20 to 50%.

Turning to `Cc1nnc(C)n1-c1ccc(O[C@H]2c3cc(Cl)cc(Cl)c3C[C@@H]2N(C)CCO)c(F)c1` [Example 704, 2-({trans-(1S,2S)-4,6-Dichloro-1-[4-(3,5-dimethyl-[1,2,4]triazol-4-yl)-2-fluoro-phenoxy]-indan-2-yl}-methyl-amino)-ethanol], the IC50 under setting [1] is less than 1000 nM.

As to `NC(=O)c1cc(Cl)ccc1O[C@H]1c2ccccc2CC[C@@H]1N1CCC[C@@H](N)C1` (racemic) [Example 365, 2-[rac-trans-(1,2)-2-((R)-3-aminopiperidin-1-yl)-1,2,3,4-tetrahydronaphthalen-1-yloxy]-5-chlorobenzamide], under setting [1], the IC50 was 1000 to 10000 nM.

With `CC(=O)Nc1ccc(S[C@H]2c3cc(Cl)cc(Cl)c3C[C@@H]2N2CC[C@@H](O)C2)cc1` [Example 699, N-{4-[(1S,2S)-4,6-dichloro-2-((R)-3-hydroxypyrrolidin-1-yl)indan-1-ylsulfanyl]phenyl}acetamide], the IC50 under setting [1] fell in the range of 1000 to 10000 nM.

In the case of `Cc1nnc(C)n1-c1ccc(O[C@H]2c3cc(Cl)ccc3C[C@@H]2N2CCOCC2)c(Cl)c1` [Example 566, 4-{trans-(1S,2S)-6-chloro-1-[2-chloro-4-(3,5-dimethyl-[1,2,4]triazol-4-yl)phenoxy]indan-2-yl}morpholine], the IC50 under setting [1] is less than 1000 nM.

In the case of `Cc1nnc(C)n1-c1ccc(O[C@H]2c3cc(Cl)cc(Cl)c3C[C@@H]2NC2CCCC2)c(F)c1` [Example 746, Cyclopentyl-{trans-(1S,2S)-4,6-dichloro-1-[4-(3,5-dimethyl-[1,2,4]triazol-4-yl)-2-fluoro-phenoxy]-indan-2-yl}-amine], under setting [1], the IC50 is less than 1000 nM.

In the case of `N[C@@H]1CCCN([C@H]2CCc3ccccc3[C@@H]2Oc2ccc(N3C(=O)CCC3=O)cc2)C1` (racemic) [Example 326, 1-{4-[rac-trans-(1,2)-2-((R)-3-aminopiperidin-1-yl)-1,2,3,4-tetrahydronaphthalen-1-yloxy]phenyl}pyrrolidine-2,5-dione], the IC50 under setting [1] was in the range of 1000 to 10000 nM.

In the case of `N[C@@H]1CCCN([C@H]2CCc3ccccc3[C@@H]2Oc2ccc(Cl)cc2-c2cc[nH]n2)C1` (racemic) [Example 119, (R)-1-{rac-trans-(1,2)-1-[4-chloro-2-(1H-pyrazol-3-yl)phenoxy]-1,2,3,4-tetrahydronaphthalen-2-yl}piperidin-3-ylamine], the IC50 under setting [1] was less than 1000 nM.

With `O=C(O[C@H]1c2ccccc2C[C@@H]1N1CCCC1)c1ccc(N2CCCC2=O)cc1` [Example 461, 4-(2-Oxopyrrolidin-1-yl)benzoic acid (1S,2S)-2-pyrrolidin-1-ylindan-1-yl ester], the inhibition at 10 µM under setting [1] fell in the range of 20 to 50%.

For the compound `CN(C)C(=O)Cc1ccc(O[C@H]2c3ccccc3C[C@@H]2N2CCCC2)cc1` (racemic) [Example 634, N,N-dimethyl-2-[4-(rac-trans-(1,2)-2-pyrrolidin-1-ylindan-1-yloxy)phenyl]acetamide], the IC50 under setting [1] was in the range of 1000 to 10000 nM.

For `N[C@H]1CCCN([C@H]2CCc3ccccc3[C@@H]2Oc2ccc(N3C(=O)CCC3=O)cc2)C1` (racemic) [Example 328, 1-{4-[rac-trans-(1,2)-2-((S)-3-aminopiperidin-1-yl)-1,2,3,4-tetrahydronaphthalen-1-yloxy]phenyl}pyrrolidine-2,5-dione], the inhibition at 10 µM under setting [1] fell in the range of 20 to 50%.

As to `Cc1nnc(C2CC2)n1-c1ccc(O[C@H]2c3ccccc3C[C@@H]2N2CCCC2)cc1` (racemic) [Example 448, 3-Cyclopropyl-5-methyl-4-[4-(rac-trans-(1,2)-2-pyrrolidin-1-ylindan-1-yloxy)phenyl]-4H-[1,2,4]triazole], under setting [1], the IC50 was less than 1000 nM.

`N#Cc1ccc(O[C@H]2c3cc(Cl)cc(Cl)c3C[C@@H]2N2CC[C@H](O)C2)c(F)c1` [Example 555, 4-[trans-(1S,2S)-4,6-dichloro-2-((S)-3-hydroxypyrrolidin-1-yl)indan-1-yloxy]-3-fluorobenzonitrile]: the IC50 under setting [1] was 1000 to 10000 nM.

Turning to `N#Cc1ccc(O[C@H]2c3ccccc3CC[C@@H]2N2CCC[C@@H](N)C2)c(F)c1F` (racemic) [Example 509, 4-[rac-trans-(1,2)-2-((R)-3-aminopiperidin-1-yl)-1,2,3,4-tetrahydronaphthalen-1-yloxy]-2,3-difluorobenzonitrile], under setting [1], the IC50 is 1000 to 10000 nM.

For the setting “Activity range (inhibitory effect on NHE3)”, `CN(C)S(=O)(=O)c1ccc(O[C@H]2c3ccccc3C[C@@H]2N2CCCC2)c(Cl)c1` (racemic) [Example 447, 3-chloro-N,N-dimethyl-4-(rac-trans-(1,2)-2-pyrrolidin-1-ylindan-1-yloxy)benzenesulfonamide] yielded an IC50 of less than 1000 nM.

For `NCC1CCN([C@@H]2Cc3ccccc3[C@H]2Oc2cccc(NC(N)=O)c2)C1` (mixture of isomers) [Example 233, {3-[rac-trans-(1,2)-2-(3-aminomethylpyrrolidin-1-yl)indan-1-yloxy]phenyl}urea], the IC50 under setting [1] lay in the range of 1000 to 10000 nM.

For `Cn1ccn(-c2cc(O[C@H]3c4cc(Cl)cc(Cl)c4C[C@@H]3N3CC[C@@H](O)C3)ccc2F)c1=O` [Example 745, 1-{5-[trans-(1S,2S)-4,6-Dichloro-2-((R)-3-hydroxy-pyrrolidin-1-yl)-indan-1-yloxy]-2-fluoro-phenyl}-3-methyl-1,3-dihydro-imidazol-2-one], the inhibition at 10 µM under setting [1] lay in the range of 20 to 50%.

`Cc1nnc(C(C)C)n1-c1ccc(O[C@H]2c3cc(Cl)cc(Cl)c3C[C@@H]2N2CC[C@@H](O)C2)cc1` [Example 715, (R)-1-{trans-(1S,2S)-4,6-Dichloro-1-[4-(3-isopropyl-5-methyl-[1,2,4]triazol-4-yl)-phenoxy]-indan-2-yl}-pyrrolidin-3-ol]: the IC50 under setting [1] was less than 1000 nM.

With `CC(=O)Nc1cccc(O[C@H]2c3cc(F)ccc3C[C@@H]2N2CCCC2)c1` (racemic) [Example 661, N-[3-(rac-trans-(1,2)-6-fluoro-2-pyrrolidin-1-ylindan-1-yloxy)phenyl]acetamide], under setting [1], the IC50 was less than 1000 nM.

Take `CS(=O)(=O)c1ccccc1O[C@H]1c2cc(Cl)cc(Cl)c2C[C@@H]1N1CCC[C@@H](N)C1` [Example 25, (R)-1-[(1S,2S)-4,6-dichloro-1-(2-methanesulfonylphenoxy)indan-2-yl]piperidin-3-ylamine]: the IC50 under setting [1] was less than 1000 nM.

On to `CC(=O)Nc1cccc(O[C@H]2c3cc(F)cc(Cl)c3C[C@@H]2N2CCC[C@@H](N)C2)c1` (racemic) [Example 677, N-{3-[rac-trans-(1,2)-2-((R)-3-aminopiperidin-1-yl)-4-chloro-6-fluoroindan-1-yloxy]phenyl}acetamide], for which the IC50 under setting [1] was less than 1000 nM.

In the case of `CS(=O)(=O)c1ccc(O[C@H]2c3cc(F)cc(Cl)c3C[C@@H]2N2CCCC2)cc1` (racemic) [Example 284, 1-[rac-trans-(1,2)-4-chloro-6-fluoro-1-(4-methanesulfonylphenoxy)indan-2-yl]pyrrolidine], the IC50 under setting [1] is 1000 to 10000 nM.

`CCCC1(N)CCCN([C@H]2Cc3c(Cl)cc(Cl)cc3[C@@H]2Oc2ccc(S(C)(=O)=O)cc2)C1` (stereo partly drawn) [Example 300, 1-[trans-(1S,2S)-4,6-dichloro-1-(4-methanesulfonylphenoxy)indan-2-yl]-3-propylpiperidin-3-ylamine]: the IC50 under setting [1] fell in the range of 1000 to 10000 nM.

Regarding `COC(=O)c1ccc(O[C@H]2c3ccccc3CC[C@@H]2N2CCC[C@@H](N)C2)c(Cl)c1` (racemic) [Example 513, 4-[rac-trans-(1,2)-2-((R)-3-aminopiperidin-1-yl)-1,2,3,4-tetrahydronaphthalen-1-yloxy]-3-chlorobenzoic acid methyl ester], under setting [1], the inhibition at 10 µM is 20 to 50%.

With `Cc1nnc(C)n1-c1ccc(O[C@H]2c3cc(Cl)ccc3C[C@@H]2N2CC[C@H](F)C2)c(Cl)c1` [Example 559, 4-{3-chloro-4-[trans-(1S,2S)-6-chloro-2-((S)-3-fluoropyrrolidin-1-yl)indan-1-yloxy]phenyl}-3,5-dimethyl-4H-[1,2,4]triazole], under setting [1], the IC50 is less than 1000 nM.
